Values of other authors as cited in patent publication US20070020305A1, “Attractant for monitoring or controlling female stored product moths” (Board of Regents for Oklahoma State University, priority 2004, published 2007).

Test system: stored product moths
Settings: for Attraction of females and males: Indianmeal moth and Mediterranean flour moth, Toth et al. 2002

Compound | Attraction of females and males | Attractiveness to stored product moths, in words (background statement)
CC(=O)O [acetic acid] | would attract females and males | –
CCCCC/C=C\C=C\C(=O)OCC [ethyl-decdienoate] | – | not attractive
CC(C)CCO [isoamyl alcohol] | would attract females and males | –
